Experimental data published in patent US9359371B2, “Bicyclic substituted pyrimidine compounds” (Xuanzhu Pharma Co., Ltd., priority 2012, dated 2016).
Like-named read-outs stand apart in the source and are kept apart here.

Legend:
PDE-5A enzyme = PDE-5A enzyme (Homo sapiens (Human), UniProt O76074); assay: Caliper Mobility-Shift PDE-5A Assay; format: biochemical; conditions: Table 1; Avanafil value is the control
Method: Experiment 1: Measurement of Enzymatic Activity In Vitro
PDE-5A enzyme: humanized PDE-5 enzyme, SignalChem, Cat#93-31G-20.
Method: enzyme assay, Caliper Mobility-Shift PDE-5A Assay:
The test compound was accurately weighed, dissolved in DMSO, mixed thoroughly and formulated into 10 mM.
(§1) The maximum final concentration of the compound was 10 μM. The plate was incubated at 30° C. for 1 h, and 20 μL of 70 μM EDTA was then added to stop the reaction. 26 μL of solution of each well was transferred to a 384-well plate. The conversion was read on a EZ reader II. The inhibition rate was calculated by the formula below, and used to calculate IC50 by Prism 5.0 Inhibition rate=[Conversion (ZPE)−Conversion (sample)]×100/[Conversion (ZPE)−Conversion (HPE)]
Note: HPE: control without enzyme; ZPE: control without a test compound

[1] = target: PDE-5 enzyme (human blood platelets) (Homo sapiens (Human), UniProt O76074); assay: PDE-5 enzyme assay, [3H]cGMP; format: biochemical
bovine retinal PDE-6 [2] = target: bovine retinal PDE-6 (Bos taurus (Bovine), UniProt P11541+P23439); assay: PDE-6 enzyme assay, [3H]cGMP; format: biochemical
Method: (§2) Experiment 3: Measurement of Enzyme Activity on PDE-6 Enzyme In Vitro
(§3) Source of enzyme: PDE-6, bovine retinal PDE-6
(§4) Method: The test compound or solvent was incubated at 25° C. for 15 min with enzyme solution (0.2 μg/mL) in Tris-HCl buffer of pH 7.5. 100 μM cGMP and 0.03 μM [^3H] cGMP were then added to activate the reaction. The mixture was incubated for 20 min. The reaction was stopped at 100° C. By addition of snake venom nucleotidase, the product [^3H] GMP was converted into [^3H] Guanosine, which was separated with AG1-X2 resin. The amount of [^3H] Guanosine was measured.

bovine retinal PDE-6 [3] = assay: PDE-6 enzyme assay, [3H]cGMP; format: biochemical; conditions: for Selectivity (PDE-6/PDE-5): IC50 for PDE-6/IC50 for PDE-5
Method: as §2, §3, §4

PDE-11 = PDE-11 (Homo sapiens (Human), UniProt Q9HCR9); assay: Caliper Mobility-Shift PDE-11 Assay; format: biochemical; conditions: Table 4; maximum final concentration 10 μM
Method: Experiment 4: Measurement of Pharmacological Activity on PDE-11 Enzyme In Vitro
Method: enzyme assay, Caliper Mobility-Shift PDE-11 Assay
The test compound was accurately weighed, dissolved in DMSO, mixed thoroughly and formulated into 10 mM. The above stock solution was diluted to a concentration of 0.5 mM with DMSO, and then was gradiently diluted by a dilution factor of 3.162, resulting in 11 concentrations in total.
as §1, with “To a 96-well plate, 20 μL of 10 μM FL-cGMP as the substrate was added; then 1 μL solution of the compound in DMSO or DMSO solution without compound was added; and then 29 μL of 0.28 ng/μL PDE-11 enzyme buffer (100 mM Hepes pH 7.5, 5 mM MgCl2, 0.002% Brij-35) was added. The maximum” for “The maximum”, “II. The Inhibition rate was” for “II. The inhibition rate was”
Note: HPE: control without enzyme; ZPE: control without compound

[4] = Pharmacokinetics (PK) in SD rats; format: in vivo; conditions: rat; for AUC(0-inf) / half-life / Cmax / Tmax / bioavailability: SD, plasma; for bioavailability: read-out: F % (absolute bioavailability)
Method: Experiment 9: Assay of Pharmacokinetics (PK) of the Compounds of the Present Invention in SD Rats
Compound 1-54 of the present invention were prepared by the methods described in Example 1 to Example 54 of the present invention.
The control drug Avanafil, of which the structure was stated above, was purchased commercially.
Collection of the rat's blood: The animal was fixed. The tail was warmed with a water bath 10 min before the collection time. About 200 μL of whole blood was collected from the tail vein. The collected blood was collected into anticoagulant tubes containing heparin sodium. The blood samples were centrifuged at 4° C. by 8000 rpm for 6 min to give the plasma samples, which should be prepared within 30 min after the collection of blood. The plasma samples were stored in a freezer of −80° C. until test.
The result output by Analyst 1.5.1 of AB Company was used as the concentration of the tested sample (plasma sample). The mean value, standard deviation, variable coefficient and the like were calculated by Microsoft Excel (except for the result directly output by Analyst 1.5.1). Parameters of PK were calculated by Pharsight Phoenix 6.2 software. Formula for calculating oral bioavailability: F %=AUCinf−po*Doseiv/AUCinf−iv*Dosepo.

hERG channel = hERG channel (Homo sapiens (Human), UniProt Q12809); assay: hERG potassium channel whole-cell patch clamp on CHO-K1 cell line
From the text: Experiment 8: Detection of Inhibitory Effect of the Compounds of the Present Invention on hERG Potassium Channel by the Patch Clamp Method
Rapidly activated human delayed rectifying outward potassium current (IKr) is mainly mediated by hERG ion channel and is involved in repolarization of human cardiac muscle cell. Clinically, blocking of the current by a drug is the main cause of QT interval prolongation syndrome, acute arrhythmia and even sudden death. The main purpose of the experiment is to test the blocking effect of the compounds of the present invention on hERG channel, and to determine the half maximal inhibitory concentration (IC50) of the compounds.
The experiment mainly included: (1) recording hERG current by patch clamp technique on CHO-K1 cell line which stably expressed hERG channel; (2) calculating the Inhibition rate of each concentration according to hERG tail current; (3) testing each compound at 5 concentrations to calculate IC50; (4) testing 2 cells at each concentration; (5) a positive control.
The structures and synthesis of Compound 88 (WO-88) and Compound 93 (WO-93) as disclosed in WO200119802A were described in Example 55 and Example 56.
Drug for positive control: Amitriptyline hydrochloride (Sigma-Aldrich, an international standard blocker for hERG channel)
Pippette Solution (in mM): KCl 120, KOH 31.25, CaCl2 5.374, MgCl2 1.75, Ethylene glycol-bis(β-aminoethyl ether)-N,N,N′,N′-tetraacetic acid (EGTA) 10, HEPES 10, Na2-ATP 4, adjusted to a pH of 7.2 with 1N potassium hydroxide; adjusted to an osmotic pressure of 280-290 mOsm; preserved at −20° C. after filtration.
Preparation of compounds: Some of the compounds of the present invention and Amitriptyline hydrochloride as the positive control drug were separately dissolved in 100% DMSO (Merck, 61850125001730), then prepared into stock solutions of 30 mM. Before the experiment, the above stock solutions were diluted with DMSO to a concentration of 1000-fold of the experimental concentration. Then the diluted solutions were further diluted with extracellular solution by 1:1000 to the required experimental concentration. The final concentration of DMSO in the extracellular solution was kept as 0.1%.
Stable cell line CHO-hERG was purchased from AVIVA Company. The hERG current on the cell line was recorded. For the purpose of quality control, the smallest seal resistance was no less than 500 MΩ, and the hERG current was no less than 0.4 nA.
The hERG current was recorded by a whole-cell patch clamp technique. Cell suspension was added into a 35-mm culture dish. The culture dish was placed on the objective table of an inverted microscope. Upon cell attachment, perfusion was conducted with the extracellular solution at a flow rate of 1-2 mL/min.
Glass microelectrode with the pipette tip resistance of 2-5 MΩ was controlled by a microelectrode puller via a two-step process. After the whole-cell record was set up, the clamp potential was kept at −80 mV. The cell was depolarized to +60 mV by applying a voltage stimulus, and then repolarized to −50 mV to obtain the hERG tail current. Recordation was conducted after the current was stable. The extracellular perfusion was started from the lowest concentration, with 5-10 min for each concentration until the current was stable, and then conducted with the next concentration.
Stimulus payment and signal collection were performed by A/D-D/A conversion using Digidata 1440 (Molecular Devices) and pCLAMP software (Version 10.2, Molecular Devices). Signal amplification was performed on a patch clamp amplifier (Multiclamp 700B, Molecular Devices), with a filter of 1 KHz. Further data analysis and curve fitting were conducted by Clampfit (version 10.2, Molecular Devices) and Prism. The data were presented as mean value±standard deviation.
In the process of data analysis, the peak value and the baseline of the tail current were corrected when determining the blocking effect on hERG.

[5] = Table 2, human blood platelet enzyme, read-out: IC50 on PDE-5
[6] = Table 4-1, read-out: PDE-5 (IC50 nM)
[7] = Table 3, read-out: IC50 on PDE-6
[8] = Table 4-1, read-out: PDE-6 (IC50 nM)
[9] = po, intragastric administration, 1 mg/kg
[10] = po, intragastric administration, 5 mg/kg

hERG channel, sequence (Q12809 whole entry): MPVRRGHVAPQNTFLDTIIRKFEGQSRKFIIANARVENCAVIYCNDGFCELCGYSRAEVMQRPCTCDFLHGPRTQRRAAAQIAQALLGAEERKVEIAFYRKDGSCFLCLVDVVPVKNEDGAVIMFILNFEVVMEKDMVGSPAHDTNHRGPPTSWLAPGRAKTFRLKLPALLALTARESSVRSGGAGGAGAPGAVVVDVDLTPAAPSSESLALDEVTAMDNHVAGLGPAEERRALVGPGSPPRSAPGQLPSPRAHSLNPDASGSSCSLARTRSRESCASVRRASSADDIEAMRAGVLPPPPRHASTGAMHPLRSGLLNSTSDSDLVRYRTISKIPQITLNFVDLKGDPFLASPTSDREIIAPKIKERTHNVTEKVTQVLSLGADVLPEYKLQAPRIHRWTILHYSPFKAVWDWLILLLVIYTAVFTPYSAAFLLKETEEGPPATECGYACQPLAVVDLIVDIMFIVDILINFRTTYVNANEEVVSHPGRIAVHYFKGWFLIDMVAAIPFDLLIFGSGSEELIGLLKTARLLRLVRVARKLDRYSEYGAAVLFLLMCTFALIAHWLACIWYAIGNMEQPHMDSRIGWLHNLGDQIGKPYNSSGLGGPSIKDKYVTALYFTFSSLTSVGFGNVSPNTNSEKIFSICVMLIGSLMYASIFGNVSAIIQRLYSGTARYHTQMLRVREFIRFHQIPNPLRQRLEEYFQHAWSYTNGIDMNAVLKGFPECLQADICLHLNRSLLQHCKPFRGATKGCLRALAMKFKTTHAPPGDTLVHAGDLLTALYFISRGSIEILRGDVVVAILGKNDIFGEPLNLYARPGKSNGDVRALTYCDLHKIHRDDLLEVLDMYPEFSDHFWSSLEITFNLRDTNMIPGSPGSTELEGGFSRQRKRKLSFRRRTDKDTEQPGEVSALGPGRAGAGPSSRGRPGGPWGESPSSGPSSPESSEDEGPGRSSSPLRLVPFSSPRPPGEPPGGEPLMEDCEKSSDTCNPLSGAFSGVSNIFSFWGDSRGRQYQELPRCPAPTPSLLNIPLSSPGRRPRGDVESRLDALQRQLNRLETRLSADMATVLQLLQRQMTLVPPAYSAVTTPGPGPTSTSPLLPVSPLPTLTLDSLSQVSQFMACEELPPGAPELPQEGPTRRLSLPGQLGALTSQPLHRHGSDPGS
PDE-11, sequence (Q9HCR9 whole entry): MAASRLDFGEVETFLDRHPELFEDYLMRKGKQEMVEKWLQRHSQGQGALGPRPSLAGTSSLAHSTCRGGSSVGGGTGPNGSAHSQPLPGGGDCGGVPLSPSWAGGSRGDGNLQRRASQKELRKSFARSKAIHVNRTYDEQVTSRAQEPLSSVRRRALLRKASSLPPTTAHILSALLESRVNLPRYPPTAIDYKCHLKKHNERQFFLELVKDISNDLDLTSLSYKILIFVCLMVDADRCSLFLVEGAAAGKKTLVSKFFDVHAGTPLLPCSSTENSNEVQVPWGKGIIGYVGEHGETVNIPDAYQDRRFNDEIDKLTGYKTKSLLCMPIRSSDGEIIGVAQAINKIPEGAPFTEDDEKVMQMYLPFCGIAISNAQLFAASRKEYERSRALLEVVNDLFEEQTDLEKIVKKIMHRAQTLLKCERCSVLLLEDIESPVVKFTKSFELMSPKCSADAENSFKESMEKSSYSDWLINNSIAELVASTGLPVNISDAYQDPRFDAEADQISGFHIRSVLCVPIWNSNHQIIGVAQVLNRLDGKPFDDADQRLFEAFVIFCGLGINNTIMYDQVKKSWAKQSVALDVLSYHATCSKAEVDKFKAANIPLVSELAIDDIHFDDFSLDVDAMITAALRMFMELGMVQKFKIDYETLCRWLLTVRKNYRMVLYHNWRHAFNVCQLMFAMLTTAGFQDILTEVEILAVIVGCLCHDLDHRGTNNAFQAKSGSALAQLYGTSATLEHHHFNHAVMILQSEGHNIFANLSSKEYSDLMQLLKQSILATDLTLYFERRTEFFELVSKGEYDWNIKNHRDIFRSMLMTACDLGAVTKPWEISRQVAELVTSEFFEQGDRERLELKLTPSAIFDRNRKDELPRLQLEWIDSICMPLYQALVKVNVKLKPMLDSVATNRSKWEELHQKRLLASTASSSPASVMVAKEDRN
bovine retinal PDE-6 (Bos taurus (Bovine), UniProt P11541+P23439), sequence (P11541 whole entry, looked up): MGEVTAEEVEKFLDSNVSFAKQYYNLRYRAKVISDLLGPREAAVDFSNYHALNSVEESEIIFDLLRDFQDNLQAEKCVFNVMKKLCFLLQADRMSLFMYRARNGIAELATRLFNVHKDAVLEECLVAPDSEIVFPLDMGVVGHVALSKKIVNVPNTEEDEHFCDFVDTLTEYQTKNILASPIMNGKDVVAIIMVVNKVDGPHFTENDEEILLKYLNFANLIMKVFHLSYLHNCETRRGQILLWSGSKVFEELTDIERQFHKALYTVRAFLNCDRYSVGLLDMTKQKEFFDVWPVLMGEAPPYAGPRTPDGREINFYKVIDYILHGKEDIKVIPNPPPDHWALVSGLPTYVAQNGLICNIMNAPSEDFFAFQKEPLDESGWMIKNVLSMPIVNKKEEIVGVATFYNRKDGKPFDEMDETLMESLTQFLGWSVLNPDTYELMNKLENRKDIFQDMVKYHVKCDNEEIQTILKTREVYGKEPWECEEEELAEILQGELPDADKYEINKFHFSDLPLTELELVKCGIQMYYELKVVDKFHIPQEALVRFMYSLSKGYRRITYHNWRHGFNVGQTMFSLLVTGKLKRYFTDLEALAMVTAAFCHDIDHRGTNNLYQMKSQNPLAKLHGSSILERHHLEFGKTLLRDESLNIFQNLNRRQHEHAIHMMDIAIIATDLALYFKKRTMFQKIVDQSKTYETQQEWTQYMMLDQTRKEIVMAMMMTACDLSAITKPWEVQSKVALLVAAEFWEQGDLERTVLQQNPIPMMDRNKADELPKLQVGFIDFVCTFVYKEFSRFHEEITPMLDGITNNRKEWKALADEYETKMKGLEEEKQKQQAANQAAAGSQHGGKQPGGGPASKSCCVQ
bovine retinal PDE-6 (Bos taurus (Bovine), UniProt P11541+P23439), sequence (P23439 whole entry, looked up): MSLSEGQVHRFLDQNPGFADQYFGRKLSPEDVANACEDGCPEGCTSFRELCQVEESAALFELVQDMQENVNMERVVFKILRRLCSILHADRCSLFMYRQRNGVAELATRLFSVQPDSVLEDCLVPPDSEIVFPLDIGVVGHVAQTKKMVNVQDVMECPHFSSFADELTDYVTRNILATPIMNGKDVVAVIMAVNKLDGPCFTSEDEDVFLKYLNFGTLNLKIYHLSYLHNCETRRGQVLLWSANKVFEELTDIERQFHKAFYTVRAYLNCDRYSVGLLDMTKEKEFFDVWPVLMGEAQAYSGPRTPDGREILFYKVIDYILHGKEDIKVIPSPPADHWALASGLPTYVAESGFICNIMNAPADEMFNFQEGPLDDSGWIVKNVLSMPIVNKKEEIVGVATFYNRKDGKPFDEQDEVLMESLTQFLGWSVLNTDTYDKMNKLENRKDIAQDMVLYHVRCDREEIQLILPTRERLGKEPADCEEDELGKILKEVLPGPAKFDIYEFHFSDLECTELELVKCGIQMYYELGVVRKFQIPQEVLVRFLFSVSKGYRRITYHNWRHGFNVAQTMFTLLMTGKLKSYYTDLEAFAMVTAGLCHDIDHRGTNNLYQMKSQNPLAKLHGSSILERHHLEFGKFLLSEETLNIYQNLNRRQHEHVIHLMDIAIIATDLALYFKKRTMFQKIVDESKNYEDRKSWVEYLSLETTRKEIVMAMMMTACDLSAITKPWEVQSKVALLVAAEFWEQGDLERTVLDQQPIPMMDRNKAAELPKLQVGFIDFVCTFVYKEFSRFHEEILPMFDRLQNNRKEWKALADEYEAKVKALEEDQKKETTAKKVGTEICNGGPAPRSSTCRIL

SMILES | IC50 (PDE-5A enzyme) [nM] | IC50 [1, 5] [nM] | IC50 [1, 6] [nM] | IC50 (bovine retinal PDE-6 [2]; [7]) [nM] | IC50 (bovine retinal PDE-6 [2]; [8]) [nM] | Selectivity (PDE-6/PDE-5) (bovine retinal PDE-6 [3]) | IC50 (PDE-11) [nM] | AUC(0-inf) ([4]; intravenous injection, 1 mg/kg) [ng·h/mL] | half-life ([4]; intravenous injection, 1 mg/kg) [h] | Cl_obs ([4]; intravenous injection, 1 mg/kg) [mL/min/kg] | Vss_obs ([4]; intravenous injection, 1 mg/kg) [L/kg] | IC50 (hERG channel) [nM] | AUC(0-inf) [4, 9] [ng·h/mL] | Cmax [4, 9] [ng/mL] | Tmax [4, 9] [h] | half-life [4, 9] [h] | bioavailability [4, 9] [%] | further results
COc1ccc(CNc2nc(N3CCC4(CC4)C3)ncc2C(=O)NCCN2CCN(C)CC2)cc1Cl [Compound 46, 4-((3-chloro-4-methoxybenzyl)amino)-N-(2-(4-methylpiperazin-1-yl)ethyl)-2-(5-azaspiro[2.4]heptan-5-yl)pyrimidine-5-formamide] | 14.9 | 0.31 | 0.31 | 310 | 310 | 1000 | > 10000 | 214 | 13.9 | 79 | 86.40 |  |  |  |  |  |  | 
COc1ccc(CNc2nc(N3Cc4cccnc4C3)ncc2C(=O)N[C@H]2CC[C@H](O)CC2)cc1Cl [WO-93, N-(trans-4-hydroxycyclohexan-1-yl)-4-((3-chloro-4-methoxybenzyl)amino)-2-(5H-pyrrolo[3,4-b]pyridin-6(7H)yl)-5-pyrimidine formamide, reference compound] |  |  |  |  |  |  |  | 709 | 2.6 | 25 | 5.0 | > 30000 | 89 | 15 | 4 | 2.8 | 16 | 
COc1ccc(CNc2nc(N3CC4CC4C3)ncc2C(=O)NCc2cnc(C)cn2)cc1Cl (stereo not drawn) [Compound 4, 2-(3-azabicyclo[3.1.0]hexan-3-yl)-4-((3-chloro-4-methoxybenzyl)amino)-N-((5-methylpyrazine-2-yl)methyl)pyrimidine-5-formamide] | 4.63 |  |  |  |  |  | > 10000 |  |  |  |  |  |  |  |  |  |  | 
COc1ccc(CNc2nc(N3CC4CC4C3)ncc2C(=O)N[C@H]2CC[C@H](O)CC2)cc1C (stereo partly drawn) [Compound 50, 2-(3-azabicyclo[3.1.0]hexan-3-yl)-N-((trans)-4-hydroxycyclohexyl)-4-((4-methoxy-3-methylbenzyl)amino)pyrimidine-5-formamide] |  | 7.72 | 7.72 | 660 | 660 | 85 |  |  |  |  |  | > 30000 |  |  |  |  |  | selectivity on PDE-5 enzyme versus PDE-6 (in words) (bovine retinal PDE-6 [3]; selectivity >70 called high): higher selectivity on PDE-5 enzyme than to PDE-6; inhibitory effect on hERG channel (in words) (hERG channel; human, CHO-K1 cells stably expressing hERG channel, pH 7.4): none of Compound 3, 11 and 50 of the present invention had a significant inhibitory effect; AUC(0-inf) [4, 10]: 4720 ng·h/mL; Cmax [4, 10]: 377 ng/mL; Tmax [4, 10]: 6 h; half-life [4, 10]: 5.4 h; bioavailability [4, 10]: 65%; AUC(0-inf) ([4]; intravenous injection, 2 mg/kg): 2580 ng·h/mL; half-life ([4]; intravenous injection, 2 mg/kg): 4.1 h; Cl_obs ([4]; intravenous injection, 2 mg/kg): 13 mL/min/kg; Vss_obs ([4]; intravenous injection, 2 mg/kg): 4.48 L/kg
COc1ccc(CNc2nc(N3CCC[C@H]3CO)ncc2C(=O)N[C@H]2CC[C@H](O)CC2)cc1Cl [WO-88, N-((trans)-4-hydroxylcyclohexan-1-yl)-4-((3-chloro-4-methoxybenzyl)amino)-2-((s)-2-(hydroxymethyl)tetrahydropyrrole-1-yl)-5-pyrimidine formamide, reference compound] |  |  |  |  |  |  |  | 347 | 1 | 48.3 | 3.6 | > 30000 | 63 | 29 | 0.5 | 2.8 | 23 | IC50 [1]: 0.59 nM
COc1ccc(CNc2nc(N3CC4CC4C3)ncc2C(=O)NCc2ncccn2)cc1Cl (stereo not drawn) [Compound 1, 2-(3-azabicyclo[3.1.0]hexan-3-yl)-4-((3-chloro-4-methoxybenzyl)amino)-N-(pyrimidin-2-ylmethyl)pyrimidine-5-formamide] | 6.04 | 6.04 |  |  |  |  | > 10000 |  |  |  |  |  |  |  |  |  |  | 
